We go through 10 compounds from patent publication US20240116985A1, “STAPLED PEPTIDES AND METHODS THEREOF” (priority 2020, published 2024).

One data set in a line: CHI Log D procedure. The format is physicochemical. The settings on record: for chromatographic logD: pH 7.4, CHI Log D; for CHI Log D: pH 7.4.
Data set [1] deals with T1, full-length beta-Catenin (Uniprot ID P35222) (Homo sapiens, UniProt P35222).
T1 construct: 10 nM full-length beta-Catenin (Uniprot ID P35222)
T1 sequence (P35222 1-781): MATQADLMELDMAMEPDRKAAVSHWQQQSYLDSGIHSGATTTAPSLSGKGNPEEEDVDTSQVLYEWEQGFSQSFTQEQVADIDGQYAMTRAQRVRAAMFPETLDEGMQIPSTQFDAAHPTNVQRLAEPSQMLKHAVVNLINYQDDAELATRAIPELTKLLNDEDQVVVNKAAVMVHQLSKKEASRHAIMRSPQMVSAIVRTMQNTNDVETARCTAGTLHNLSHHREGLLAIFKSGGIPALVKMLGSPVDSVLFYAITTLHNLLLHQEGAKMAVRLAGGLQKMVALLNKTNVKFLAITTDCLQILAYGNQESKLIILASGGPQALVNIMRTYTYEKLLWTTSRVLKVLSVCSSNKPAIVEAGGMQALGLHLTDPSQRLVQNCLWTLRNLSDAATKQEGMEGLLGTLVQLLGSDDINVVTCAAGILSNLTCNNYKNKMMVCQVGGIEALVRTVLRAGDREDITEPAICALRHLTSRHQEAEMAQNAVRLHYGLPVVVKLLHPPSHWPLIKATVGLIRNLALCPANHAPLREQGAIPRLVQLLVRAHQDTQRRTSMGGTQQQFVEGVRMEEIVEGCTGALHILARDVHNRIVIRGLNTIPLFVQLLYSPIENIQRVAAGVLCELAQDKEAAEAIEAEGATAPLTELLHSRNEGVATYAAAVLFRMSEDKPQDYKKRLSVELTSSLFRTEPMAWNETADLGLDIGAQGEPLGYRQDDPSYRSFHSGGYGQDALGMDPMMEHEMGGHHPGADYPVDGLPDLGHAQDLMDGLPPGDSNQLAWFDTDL
Kind of data set: Fluorescence polarization IC50 (beta-catenin / 5FAM-TCF4 10-53 competition). The format is binding. Background: In fluorescence polarisation assays a small probe gives low polarisation when free and higher when bound to something large.

A further data set can be described thus: Solubility in PBS. The data set is classed as physicochemical. The procedure, abridged: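 PBS sample ultracentrifuged; supernatant run on HPLC vs. 50 μM peptide in DMSO standard. Solubility = (PBS peak area / DMSO peak area) × 50 uM.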
Setting [2] is: fluorescence polarization, read-out: beta-Catenin FP IC50.

Molecules are shown by their SMILES. pIC50: −log10 of the molar value. ≈ marks a conversion by molar mass, not a printed value. Read-outs that look alike come from different tables or passages of the source.

In general, chromatographic logD refers to lipophilicity estimated from chromatographic retention. Broadly, the Solubility is the concentration that dissolves in the medium under given conditions. Read a high Solubility as much dissolved substance. `CC[C@H](C)[C@@H]1NC(=O)[C@H](CC(=O)O)NC(=O)[C@]2(CC=CCCCC3(CCCC=CCCCCCC[C@@](C)(C(=O)N[C@@H](Cc4ccccc4)C(=O)N[C@@H](Cc4csc5ccccc45)C(=O)N[C@@H](CCC(N)=O)C(N)=O)NC(=O)[C@H](CCC(N)=O)NC(=O)[C@H](Cc4cccc(OC)c4)NC(=O)[C@H](C)NC(=O)[C@H](C)NC(=O)[C@H](CCC(=O)O)NC(=O)[C@H](CC(=O)O)NC3=O)NC1=O)CCCN2C(C)=O` (stereo partly drawn) [I-724, Ac-PL3-Asp-Ile-B5-Asp-Glu-Ala-Ala-3OMeF-Gln-S8-Phe-BztA-Gln-NH2]: the chromatographic logD in “CHI Log D procedure” is 2.42. Also, the pIC50 in data set [1] (setting [2]) is 6.94. In “Solubility in PBS” (Solubility (uM)), this compound came in with a Solubility of 34 µM (≈ 65 µg/mL).
The compound `CC[C@H](C)[C@@H]1NC(=O)[C@H](CC(=O)O)NC(=O)[C@]2(CC=CCCCC3(CCCC=CCCCCCC[C@@](C)(C(=O)N[C@@H](Cc4ccccc4)C(=O)N[C@@H](Cc4csc5ccccc45)C(=O)N[C@@H](CCC(N)=O)C(N)=O)NC(=O)[C@H](CCC(N)=O)NC(=O)[C@H](C(c4ccccc4)c4ccccc4)NC(=O)[C@H](C)NC(=O)[C@H](C)NC(=O)[C@H](CCC(=O)O)NC(=O)[C@H](CC(=O)O)NC3=O)NC1=O)CCCN2C(C)=O` (stereo partly drawn) [I-725, Ac-PL3-Asp-Ile-B5-Asp-Glu-Ala-Ala-DipA-Gln-S8-Phe-BztA-Gln-NH2] registered a chromatographic logD in “CHI Log D procedure” of 2.61. The pIC50 in data set [1] (setting [2]) was 5.30. In the data set “Solubility in PBS” (Solubility (uM)), this compound showed a Solubility of 42 µM (≈ 82.3 µg/mL).
Consider `CC[C@H](C)[C@@H]1NC(=O)[C@H](CC(=O)O)NC(=O)[C@]2(CC=CCCCC3(CCCC=CCCCCCC[C@@](C)(C(=O)N[C@@H](Cc4ccccc4)C(=O)N[C@@H](Cc4csc5ccccc45)C(=O)N[C@@H](CCC(N)=O)C(N)=O)NC(=O)[C@H](CCC(N)=O)NC(=O)[C@H](c4ccccc4)NC(=O)[C@H](C)NC(=O)[C@H](C)NC(=O)[C@H](CCC(=O)O)NC(=O)[C@H](CC(=O)O)NC3=O)NC1=O)CCCN2C(C)=O` (stereo partly drawn) [I-726, Ac-PL3-Asp-Ile-B5-Asp-Glu-Ala-Ala-Phg-Gln-S8-Phe-BztA-Gln-NH2], for which the chromatographic logD in “CHI Log D procedure” came to 2.34. For the same compound, the pIC50 in data set [1] (setting [2]) was 5.30. The same compound yielded a Solubility in the data set “Solubility in PBS” (Solubility (uM)) of 43 µM (≈ 80.4 µg/mL).
On to `CC[C@H](C)[C@@H]1NC(=O)[C@H](CC(=O)O)NC(=O)[C@]2(CC=CCCCC3(CCCC=CCCCCCC[C@@](C)(C(=O)N[C@@H](Cc4ccccc4)C(=O)N[C@@H](Cc4csc5ccccc45)C(=O)N[C@@H](CCC(N)=O)C(N)=O)NC(=O)[C@H](CCC(N)=O)NC(=O)[C@H](CC(C)(C)C)NC(=O)[C@H](C)NC(=O)[C@H](C)NC(=O)[C@H](CCC(=O)O)NC(=O)[C@H](CC(=O)O)NC3=O)NC1=O)CCCN2C(C)=O` (stereo partly drawn) [I-727, Ac-PL3-Asp-Ile-B5-Asp-Glu-Ala-Ala-Npg-Gln-S8-Phe-BztA-Gln-NH2], for which, in the data set “CHI Log D procedure”, the chromatographic logD was found to be 2.41. In addition, the pIC50 in data set [1] (setting [2]) was 5.30. In the data set “Solubility in PBS” (Solubility (uM)), this compound displayed a Solubility of 26 µM (≈ 48.4 µg/mL).
In turn, `CCCC[C@@H]1NC(=O)[C@H](C)NC(=O)[C@H](C)NC(=O)[C@H](CCC(=O)O)NC(=O)[C@H](CC(=O)O)NC(=O)C2(CCCC=CCCCCCC[C@@](C)(C(=O)N[C@@H](Cc3ccccc3)C(=O)N[C@@H](Cc3csc4ccccc34)C(=O)N[C@@H](CCC(N)=O)C(N)=O)NC(=O)[C@H](CCC(N)=O)NC1=O)CCCC=CC[C@]1(CCCN1C(C)=O)C(=O)N[C@@H](CC(=O)O)C(=O)N[C@@H]([C@@H](C)CC)C(=O)N2` (stereo partly drawn) [I-728, Ac-PL3-Asp-Ile-B5-Asp-Glu-Ala-Ala-nLeu-Gln-S8-Phe-BztA-Gln-NH2] gave a chromatographic logD in “CHI Log D procedure” of 2.35. Besides, the pIC50 in data set [1] (setting [2]) is 6.54. Besides, in the data set “Solubility in PBS” (Solubility (uM)), the concentration in solution (Solubility) came to 38 µM (≈ 70.3 µg/mL).
With `CC[C@H](C)[C@H](NC(=O)[C@H](CCC(N)=O)NC(=O)[C@H](Cc1csc2ccccc12)NC(=O)[C@H](Cc1ccccc1)NC(=O)[C@]1(C)CCCCCCC=CCCCC2(CCCC=CC[C@]3(CCCN3C(C)=O)C(=O)N[C@@H](CC(=O)O)C(=O)N[C@@H](CC(C)C)C(=O)N2)C(=O)N[C@@H](CC(=O)O)C(=O)N[C@@H](CCC(=O)O)C(=O)N[C@@H](C)C(=O)N[C@@H](C)C(=O)N[C@@H](Cc2ccccc2)C(=O)N[C@@H](CC(N)=O)C(=O)N1)C(N)=O` (stereo partly drawn) [I-733, Ac-PL3-Asp-Leu-B5-Asp-Glu-Ala-Ala-Phe-Asn-S8-Phe-BztA-Gln-Ile-NH2], the “CHI Log D” value in “CHI Log D procedure” was 2.154. Moreover, the pIC50 in data set [1] (setting [2]) and in data set [1] (read-out: FP EC50) was 5.37 in each case. In addition, the “Solubility” value in the data set “Solubility in PBS” is 43 µM (≈ 85.2 µg/mL).
In the case of `CC[C@@H](C)[C@@H](NC(=O)[C@H](CCC(N)=O)NC(=O)[C@H](Cc1csc2ccccc12)NC(=O)[C@H](Cc1ccccc1)NC(=O)[C@]1(C)CCCCCCC=CCCCC2(CCCC=CC[C@]3(CCCN3C(C)=O)C(=O)N[C@@H](CC(=O)O)C(=O)N[C@@H](CC(C)C)C(=O)N2)C(=O)N[C@@H](CC(=O)O)C(=O)N[C@@H](CCC(=O)O)C(=O)N[C@@H](C)C(=O)N[C@@H](C)C(=O)N[C@@H](Cc2ccccc2)C(=O)N[C@@H](CC(N)=O)C(=O)N1)C(N)=O` (stereo partly drawn) [I-735, Ac-PL3-Asp-Leu-B5-Asp-Glu-Ala-Ala-Phe-Asn-S8-Phe-BztA-Gln-dIle-NH2], the “CHI Log D” value in the data set “CHI Log D procedure” was 2.738. The pIC50 in data set [1] (setting [2]) and in data set [1] (read-out: FP EC50) was 6.61 throughout. For the same compound, in the data set “Solubility in PBS”, the “Solubility” value was found to be 43 µM (≈ 85.2 µg/mL).
Compound `CC(=O)N1CCC[C@]12CC=CCCCC1(CCCC=CCCCCCC[C@@](C)(C(=O)N[C@@H](Cc3ccccc3)C(=O)N[C@@H](Cc3csc4ccccc34)C(=O)N[C@@H](CCC(N)=O)C(=O)NC(C)(C)C(N)=O)NC(=O)[C@H](CC(N)=O)NC(=O)[C@H](Cc3ccccc3)NC(=O)[C@H](C)NC(=O)[C@H](C)NC(=O)[C@H](CCC(=O)O)NC(=O)[C@H](CC(=O)O)NC1=O)NC(=O)[C@H](CC(C)C)NC(=O)[C@H](CC(=O)O)NC2=O` (stereo partly drawn) [I-737, Ac-PL3-Asp-Leu-B5-Asp-Glu-Ala-Ala-Phe-Asn-S8-Phe-BztA-Gln-Aib-NH2] yielded a chromatographic logD in “CHI Log D procedure” of 2.73. Moreover, in data set [1] (setting [2]), the pIC50 was 6.45. This compound also came in with a Solubility in the data set “Solubility in PBS” (Solubility (uM)) of 44 µM (≈ 86 µg/mL).
The compound `CC(=O)N1CCC[C@]12CC=CCCCC1(CCCC=CCCCCCC[C@@](C)(C(=O)N[C@@H](Cc3ccccc3)C(=O)N[C@@H](Cc3csc4ccccc34)C(=O)N[C@@H](Cc3c[nH]cn3)C(=O)N[C@@H](C)C(N)=O)NC(=O)[C@H](CC(N)=O)NC(=O)[C@H](Cc3ccccc3)NC(=O)[C@H](C)NC(=O)[C@H](C)NC(=O)[C@H](CCC(=O)O)NC(=O)[C@H](CC(=O)O)NC1=O)NC(=O)[C@H](CC(C)C)NC(=O)[C@H](CC(=O)O)NC2=O` (stereo partly drawn) [I-738, Ac-PL3-Asp-Leu-B5-Asp-Glu-Ala-Ala-Phe-Asn-S8-Phe-BztA-His-Ala-NH2] registered a chromatographic logD in “CHI Log D procedure” of 2.46. Also, the pIC50 in data set [1] (setting [2]) is 7.20. In addition, in “Solubility in PBS” (Solubility (uM)), the Solubility was 41 µM (≈ 79.9 µg/mL).
Take `CC(=O)N1CCC[C@]12CC=CCCCC1(CCCC=CCCCCCC[C@@](C)(C(=O)N[C@@H](Cc3ccccc3)C(=O)N[C@@H](Cc3csc4ccccc34)C(=O)N[C@@H](Cc3c[nH]cn3)C(=O)N[C@H](C)C(N)=O)NC(=O)[C@H](CC(N)=O)NC(=O)[C@H](Cc3ccccc3)NC(=O)[C@H](C)NC(=O)[C@H](C)NC(=O)[C@H](CCC(=O)O)NC(=O)[C@H](CC(=O)O)NC1=O)NC(=O)[C@H](CC(C)C)NC(=O)[C@H](CC(=O)O)NC2=O` (stereo partly drawn) [I-739, Ac-PL3-Asp-Leu-B5-Asp-Glu-Ala-Ala-Phe-Asn-S8-Phe-BztA-His-dAla-NH2]: the chromatographic logD in the data set “CHI Log D procedure” turned out to be 2.41. Further, the pIC50 in data set [1] (setting [2]) was 7.28. Besides, in “Solubility in PBS”, the “Solubility” value came to 10 µM (≈ 19.5 µg/mL).
